We go through 18 compounds from patent publication US9388124B2, “Ingenol-3-acylates I” (LEO LABORATORIES LIMITED, priority 2010, dated 2016).

pEC50: −log10 of the molar value. Like-named read-outs stand apart in the source and are kept apart here.

Holding throughout (type): cell-based
Assay [1] has as its system PMN's (polymorphonuclear leukocytes). As to the kind of experiment: Neutrophil oxidative burst assay. The conditions noted are these: Leukocyte, 40 min, read-out: Neutrophil oxidative burst Rel EC50 range. The method, then:
Neutrophil Oxidative Burst Assay:
PMN's (polymorphonuclear leukocytes) were isolated and purified from fresh buffy coats by sequential sedimentation, density centrifugation and lysis of contaminating erythrocytes. Buffy coats were incubated with 2% methocel for 30-45 min to differentially sediment red blood cells. The leukocyte-rich supernatant was transferred to lymphoprep tubes to remove mononuclear cells by density centrifugation (400×g, 30 min). The pellet was resuspended and any remaining erythrocytes lysed using 0.2% NaCl for 30 sec before restoring isotonicity by the addition of 1.2% NaCl. This step was repeated until the cell pellet appears relatively free of red blood cells. Cells were resuspended in DPBS (Dulbecco's Phosphate Buffered Saline) (w.o. Ca^2+, Mg^2+) and the concentration adjusted to 1.4×10^6 cells/ml in HBSS (Hanks Balanced Salt solution) (w Ca^2+, Mg^2+) containing 0.1% BSA (Bovine Serum Albumin) and 5 mM glucose just prior to assay initiation. Titrated reference and test compounds were pre-mixed with HE (Hydroethidine) (10 μM final assay concentration) before addition to 96-well plates containing 2.5×10^5 cells. Following 40 min incubation at RT, changes in the respiratory burst was estimated by measuring fluorescence at 579 nm (excitation: 485 nm) using an Envision plate reader.
Test compound titration curves were fitted to a four-parameter sigmoidal curve after normalizing the effect of the test compound to the effect of the positive control (5×10^−7 M PEP0005). Rel EC50 denotes the concentration of test compound producing an effect that is midway between the fitted top and bottom. Abs EC50 is the concentration of test compound that provokes a response corresponding to 50% of the maximal effect associated with the positive control (5×10^−7 M PEP0005).

Assay [2] has as its system Primary human epidermal keratinocytes, HeKa. The assay is described as follows: HeKa cytokine release (IL-8) assay. The method, then: HeKa Cytokine Release (IL-8) Assay:
Primary human epidermal keratinocytes, HeKa, were seeded (10.000 cells/well) in 96-well plates the day before the assay. Test compounds were diluted in DMSO (dimethyl sulfoxide) and further diluted in assay medium and pipetted into wells of 96 well-plates containing HeKa cells. The plates were incubated for 6 h at 37° C. in humidified air with 5% CO2. Plates were centrifuged briefly to spin down cells at 4° C., the supernatant was removed and analysed by Meso Scale Discovery (MSD) 4-spot cytokine assay (Pro-inflammatory II Ultra Sensitive kit, MSD, MD, USA). The MSD assay employs a sandwich immunoassay format where capture antibodies are coated in a patterned array on the bottom of the wells of a 4-Spot-Multi-MSD plate. Standard samples were incubated in the MULTI-SPOT plates as well, and the cytokine (IL-8) binds to its corresponding capture antibody spot. The cytokine level was quantitated on a SECTOR™ Imager using a cytokine-specific Detection Antibody labelled with MSD SULFO-TAG™ reagent.
Test compound titration curves were fitted to a four-parameter sigmoidal curve after normalizing the effect of the test compound to the effect of the positive control (1.5×10^−7 M PEP0005). Rel EC50 denotes the concentration of test compound producing an effect that is midway between the fitted top and bottom.

Assay [3] concerns HeLa cells. As to the kind of experiment: Necrosis assay. The following applies: Homo sapiens, 0.5 h, read-out: HeLa Necrosis EC50 range. The method, then:
HeLa cells (ATCC CCL-002) were grown in minimal essential medium (Invitrogen catalog no. 42360) containing 10% fetal bovine serum, 100 IU/ml penicillin and 100 μg/ml streptomycin. 4,000-6,000 cells were seeded into 96-well black ViewPlates-plates, clear bottom, (Perkin Elmer) in 100 μl medium and incubated overnight. Compounds were dissolved and pre-diluted in DMSO in 96-well polypropylene plates (Greiner) in a concentration range of 15 μM to 600 μM. At the time of the experiment cell plates were placed on heating blocks at 37° C., medium was removed and 40 μl fresh, pre-warmed medium was added per well. Cells were incubated for 15 min before addition of compounds. In parallel, 3 μl of compounds were diluted with 197 μl growth medium on a Tecan freedom-EVO pipetting station using 250 μl/s pipetting speed, in order to ensure effective mixing of the highly concentrated compound solutions with the aqueous phase. These pre-dilution plates were then equilibrated on heating blocks at 37° C. for 10 min. 80 μl pre-diluted compound were transferred manually to the corresponding wells containing HeLa cells yielding compound concentrations of 10 μM to 400 μM. Control conditions were 1% DMSO in growth medium (100% viability) and 400 μM ingenol mebutate in growth medium (0% viability). Plates were incubated on the heating blocks at 37° C. for 30 min. At the end of the incubation 10 μl PrestoBlue reagent (Invitrogen) were added to each well, plates were sealed with black seal, followed by incubation at 37° C. for 10 min with gentle shaking (150 rpm). Subsequently, plates were placed at room temperature for 20-30 min. Plates were read immediately after on an Envision Fluorescence reader (Perkin Elmer) with excitation at 535 nm and emission at 630 nm. Test compound titration curves were fitted to a four-parameter sigmoidal curve after normalizing the effect of the test compound to the effect of the positive control (4 10^−4 M PEP0005/ingenol mebutate). AbsEC50 denotes the concentration of test compound producing 50% effect.

Setting [4] is: PMNs, 40 min at RT, hydroethidine fluorescence, normalized to 5×10^−7 M PEP0005.
Where [5] appears, read: HeKa cells, 6 h at 37° C., MSD IL-8, normalized to 1.5×10^−7 M PEP0005, read-out: HeKa cytokine release (IL-8) Rel EC50 range.
[6] abbreviates: HeLa cells, 30 min at 37° C., PrestoBlue, AbsEC50, normalized to 4 10^−4 M PEP0005/ingenol mebutate.
Setting [7] is: HEKa, 6 h, read-out: HeKa cytokine release (IL-8) Rel EC50 range.

Take `C/C=C(\C)C(=O)O[C@H]1C(C)=C[C@]23C(=O)[C@@H](C=C(CO)[C@@H](O)[C@]12O)[C@H]1[C@@H](C[C@H]3C)C1(C)C` [Compound 111, Ingenol 3-tiglate]: the pEC50 (as a rule, the EC50 on a negative log10 scale, so that one unit is a factor of ten) is above 7.70 in assay [1] (setting [4]), 7.00 to 7.70 in assay [2] (setting [5]) and above 3.46 in assay [3] (setting [6]).
On to `CC1=C[C@]23C(=O)[C@@H](C=C(CO)[C@@H](O)[C@]2(O)[C@H]1OC(=O)CC(C)(C)C)[C@H]1[C@@H](C[C@H]3C)C1(C)C` [Compound 108, Ingenol 3-(3,3-dimethyl-butanoate)], for which the pEC50 in assay [1] is above 7.70; in assay [2] (setting [7]), 7.00 to 7.70; in assay [3] (HeLa), 3.46 to 3.82.
In the same order, the values of `C/C=C(/C(=O)O[C@H]1C(C)=C[C@]23C(=O)[C@@H](C=C(CO)[C@@H](O)[C@]12O)[C@H]1[C@@H](C[C@H]3C)C1(C)C)c1ccccc1` [Compound 118, Ingenol 3-((E)-2-phenylbut-2-enoate)] are above 7.70, above 7.70 and above 3.82.
Turning to `CC(C)=CC(=O)O[C@H]1C(C)=C[C@]23C(=O)[C@@H](C=C(CO)[C@@H](O)[C@]12O)[C@H]1[C@@H](C[C@H]3C)C1(C)C` [Compound 102, Ingenol 3-(3-methyl-butenoate)], the negative-log EC50 (pEC50) in assay [1] was above 7.70; in assay [2] (setting [7]) it was 7.00 to 7.70; in assay [3] (HeLa) it was 3.46 to 3.82.
Consider `C=C(C)C(=O)O[C@H]1C(C)=C[C@]23C(=O)[C@@H](C=C(CO)[C@@H](O)[C@]12O)[C@H]1[C@@H](C[C@H]3C)C1(C)C` [Compound 101, Ingenol 3-(2-methyl-acrylate)], for which the negative-log EC50 (pEC50) in assay [1] is above 7.70; in assay [2] (setting [7]) it was below 7.00; in assay [3] (HeLa) it was 3.46 to 3.82.
Consider `CC1=C[C@]23C(=O)[C@@H](C=C(CO)[C@@H](O)[C@]2(O)[C@H]1OC(=O)Cc1ccccc1)[C@H]1[C@@H](C[C@H]3C)C1(C)C` [Compound 112, Ingenol 3-(phenyl-acetate)], for which the negative logarithm of the EC50 (pEC50) is above 7.70 in assay [1] (setting [4]), below 7.00 in assay [2] (setting [5]) and 3.46 to 3.82 in assay [3] (setting [6]).
For the compound `CC[C@@H](C)C(=O)O[C@H]1C(C)=C[C@]23C(=O)[C@@H](C=C(CO)[C@@H](O)[C@]12O)[C@H]1[C@@H](C[C@H]3C)C1(C)C` [Compound 110, Ingenol 3-(2R-methyl-butanoate)], the pEC50 is above 7.70 in assay [1] and 7.00 to 7.70 in assay [2] (setting [7]).
For the compound `C/C=C(/C)C(=O)O[C@H]1C(C)=C[C@]23C(=O)[C@@H](C=C(CO)[C@@H](O)[C@]12O)[C@H]1[C@@H](C[C@H]3C)C1(C)C` [PEP005, Ingenol-3-angelate, reference compound], the pEC50 in assay [1] (setting [4]) is above 7.70; in assay [2] (setting [5]), above 7.70; in assay [3] (setting [6]), 3.46 to 3.82.
As for `CC1=C[C@]23C(=O)[C@@H](C=C(CO)[C@@H](O)[C@]2(O)[C@H]1OC(=O)C(c1ccccc1)c1ccccc1)[C@H]1[C@@H](C[C@H]3C)C1(C)C` [Compound 119, Ingenol 3-(2,2-diphenylacetate)], the values for the negative-log EC50 (pEC50) in assay [1], in assay [2] (setting [7]) and in assay [3] (HeLa) were above 7.70, above 7.70 and above 3.82, respectively.
In the case of `CC1=C[C@]23C(=O)[C@@H](C=C(CO)[C@@H](O)[C@]2(O)[C@H]1OC(=O)CC(C)C)[C@H]1[C@@H](C[C@H]3C)C1(C)C` [Compound 106, Ingenol 3-(3-methyl-butanoate)], the negative logarithm of the EC50 (pEC50) in assay [1] is above 7.70; in assay [2] (setting [7]), 7.00 to 7.70.
Turning to `CC1=C[C@]23C(=O)[C@@H](C=C(CO)[C@@H](O)[C@]2(O)[C@H]1OC(=O)C(C)C1CCCCC1)[C@H]1[C@@H](C[C@H]3C)C1(C)C` (stereo partly shown) [Compound 114, Ingenol 3-(2-cyclohexylpropanoate)], the pEC50 is above 7.70 in assay [1], above 7.70 in assay [2] (setting [7]) and 3.46 to 3.82 in assay [3] (HeLa).
For `CCC(CC)C(=O)O[C@H]1C(C)=C[C@]23C(=O)[C@@H](C=C(CO)[C@@H](O)[C@]12O)[C@H]1[C@@H](C[C@H]3C)C1(C)C` [Compound 109, Ingenol 3-(2-ethyl-butanoate)], the negative-log EC50 (pEC50) is above 7.70 in assay [1], above 7.70 in assay [2] (setting [7]) and 3.46 to 3.82 in assay [3] (HeLa).
As for `CO/N=C(\C(=O)O[C@H]1C(C)=C[C@]23C(=O)[C@@H](C=C(CO)[C@@H](O)[C@]12O)[C@H]1[C@@H](C[C@H]3C)C1(C)C)c1ccccc1` [Compound 115, Ingenol 3-((2Z)-2-methoxyimino-2-phenyl-acetate)], the results for the pEC50 in assay [1], in assay [2] (setting [7]) and in assay [3] (HeLa) were 7.00 to 7.70, above 7.70 and above 3.82, respectively.
As for `CO/N=C(/C(=O)O[C@H]1C(C)=C[C@]23C(=O)[C@@H](C=C(CO)[C@@H](O)[C@]12O)[C@H]1[C@@H](C[C@H]3C)C1(C)C)c1ccccc1` [Compound 116, Ingenol 3-((2E)-2-methoxyimino-2-phenyl-acetate)], the pEC50 in assay [1] and in assay [2] (setting [7]) was 7.00 to 7.70 throughout.
As for `CC1=C[C@]23C(=O)[C@@H](C=C(CO)[C@@H](O)[C@]2(O)[C@H]1OC(=O)C(C#N)=C1CCCCC1)[C@H]1[C@@H](C[C@H]3C)C1(C)C` [Compound 120, Ingenol 3-(2-cyano-2-cyclohexylidene-acetate)], the pEC50 is above 7.70 in assay [1] and below 7.00 in assay [2] (setting [7]).
As for `CC1=C[C@]23C(=O)[C@@H](C=C(CO)[C@@H](O)[C@]2(O)[C@H]1OC(=O)C(C)C)[C@H]1[C@@H](C[C@H]3C)C1(C)C` [Compound 105, Ingenol 3-(2-methyl-propanoate)], the results for the negative logarithm of the EC50 (pEC50) in assay [1] and in assay [2] (setting [7]) were above 7.70 and 7.00 to 7.70, respectively.
For `CCC(C)C(=O)O[C@H]1C(C)=C[C@]23C(=O)[C@@H](C=C(CO)[C@@H](O)[C@]12O)[C@H]1[C@@H](C[C@H]3C)C1(C)C` (stereo partly shown) [Compound 107a and Compound 107b, Ingenol 3-(RS-2-methyl-butanoate)] the same measures were above 7.70 and 7.00 to 7.70.
With `COC(=O)/C=C/C(=O)O[C@H]1C(C)=C[C@]23C(=O)[C@@H](C=C(CO)[C@@H](O)[C@]12O)[C@H]1[C@@H](C[C@H]3C)C1(C)C` [Compound 113, Ingenol 3-(2Z-(methoxycarbonyl))-acrylate], the pEC50 in assay [1] was below 7.00.
